Results taken from patent US20020103192A1, “Inhibitors of histone deacetylase” (priority 2000, published 2002).

Compound	melting point [°C]
O=C(CCCCCCSc1ccccc1)c1ncco1 [Example 102, 1-(1,3-oxazol-2-yl)-7-(phenylsulfanyl)-1-heptanone]	39 to 40
O=C(CCCCCCS(=O)(=O)c1ccccc1)c1ncco1 [Example 103, 1-(1,3-oxazol-2-yl)-7-(phenylsulfonyl)-1-heptanone]	55 to 56
O=C(CCCCCCSc1ccc2ccccc2c1)c1ncco1 [Example 104, 7-(2-naphthylsulfanyl)-1-(1,3-oxazol-2-yl)-1-heptanone]	65 to 66
O=C(CCCCCCS(=O)(=O)c1ccc2ccccc2c1)c1ncco1 [Example 105, 7-(2-naphthylsulfonyl)-1-(1,3-oxazol-2-yl)-1-heptanone]	75 to 76
O=C(NCCCCCCC(=O)c1ncco1)c1cc2ccccc2[nH]1 [Example 110, N-(7-(1 ,3-oxazol-2-yl)-7-oxoheptyl)-1H-indole-2-carboxamide]	153 to 156
O=C(NCCCCCC(=O)c1ncco1)c1cc2ccccc2[nH]1 [Example 111, N-(6-(1,3-oxazol-2-yl)-6-oxohexyl)-1H-indole-2-carboxamide]	176 to 179
CC(=O)C(=O)CCCCCCOc1ccc(-c2ccccc2)cc1 [Example 113, 9-((1,1′-biphenyl)-4-yloxy)-2,3-nonanedione]	110 to 111

More lines, now with the values ahead:

melting point [°C]	Compound
94 to 95	CNC(=O)C(=O)CCCCCCSc1ccc2ccccc2c1 [Example 106, N-methyl-8-(2-naphthylsulfanyl)-2-oxooctanamide]
108 to 109	CNC(=O)C(=O)CCCCCCS(=O)(=O)c1ccc2ccccc2c1 [Example 107, N-methyl-8-(2-naphthylsulfonyl)-2-oxooctanamide]
131 to 132	CNC(=O)C(=O)CCCCCCSc1ccc(-c2ccccc2)cc1 [Example 108, 8-((1,1′-biphenyl)-4-ylsulfanyl)-N-methyl-2-oxooctanamide]
